From patent US20100298300A1, “TRIAZOLOPYRAZINE COMPOUNDS USEFUL FOR THE TREATMENT OF DEGENERATIVE & INFLAMMATORY DISEASES” (priority 2006, published 2010)

Tests used:
[1] = test system: MMP1 expression by activated primary synovial fibroblasts; assay: 'MMP assay': MMP1 expression by complex trigger activated synovial fibroblasts (MMP1 ELISA); assay type: cell-based; conditions: Homo sapiens, Fibroblast; for EC50: RASFs, complex trigger, 48 hrs, MMP1 ELISA
[2] = biological target: T1, MAPKAPK5 (Homo sapiens, UniProt Q8IW41); assay: MAPKAP-K5 assay (FlashPlate kinase assay)
T1 sequence (Q8IW41 1-471 isoform Q8IW41-2): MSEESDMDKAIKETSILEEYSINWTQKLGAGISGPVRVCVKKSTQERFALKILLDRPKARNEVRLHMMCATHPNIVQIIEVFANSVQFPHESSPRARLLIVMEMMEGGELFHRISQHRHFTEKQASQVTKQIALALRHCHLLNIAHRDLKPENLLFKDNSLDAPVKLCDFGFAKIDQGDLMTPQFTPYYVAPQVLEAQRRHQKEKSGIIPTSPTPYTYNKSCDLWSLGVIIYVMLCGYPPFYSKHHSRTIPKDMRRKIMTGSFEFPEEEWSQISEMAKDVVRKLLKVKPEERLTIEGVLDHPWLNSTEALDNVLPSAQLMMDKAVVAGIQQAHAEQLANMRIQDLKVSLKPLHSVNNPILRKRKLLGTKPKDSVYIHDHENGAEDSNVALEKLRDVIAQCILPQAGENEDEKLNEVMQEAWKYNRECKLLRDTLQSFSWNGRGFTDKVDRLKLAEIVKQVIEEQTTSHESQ
Procedure: MAPKAP-K5 reactions are performed in FlashPlate format using 0.1 or 0.2 μCi 33P-ATP; 0.6 μM ATP; 1 mU MAPKAP-K5; 3 μM MAPKAP-K5 peptide substrate, incubated at room temperature for 30 minutes.
The MAPKAP-K5 kinase reaction is performed in a 384 well polypropylene plate (Matrix Technologies) and then transferred to a streptavidin-coated 384 well flashplate (Perkin-Elmer).
To wells containing 2 μL test compound or standard inhibitor, 13 μL Enzyme mix or diluent are added using a Hydra (Robbins Scientific).
Reactions are started by addition of 10 μL of [2,5×] substrate cocktail using a Multidrop (Thermo-Labsystems), to give final concentrations in the assay of:
Plates are incubated at room temperature for 30 minutes.
Reactions are terminated by the addition of 25 μL EDTA (50 mM) to each well using a Micro-fill (Biotek).
Reactions are transferred to a streptavidin-coated flashplate using a Zymark robotic system. Plates are incubated for 60 minutes at room temperature.
All wells are washed 3 times with 100 μl phosphate buffered saline using a Tecan plate washer.
Radioactivity is determined by scintillation counting of the flashplate (empty wells) on a Packard TopCount.
Enzyme Mix: • Enzyme • 50 mM Tris Hcl (pH 7.5) • 0.1 mM EGTA • 2 mM DTT • 1 mg/mL BSA
Reaction Buffer: • 50 mM Tris Hcl (pH 7.5) • 0.1 mM EGTA • 10 mM Magnesium acetate • 2 mM DTT

SMILES | EC50 ([1]; Table 3) [nM] | IC50 [2] [nM] | EC50 ([1]; Table 4) [nM] | IC50 ([1]; complex trigger activated SFs, 48 hrs after treatment, FIG. 3, read-out: IC50 of reduction of MMP1 expression by SFs) [nM]
CC(C)(C)N1CCN(c2ccc(Nc3ncc(-c4coc(C(N)=O)c4)n4ncnc34)cc2)CC1 [Compound 183] | > 1000 | 1 to 100 | – | –
COc1cc(Nc2ncc(-c3csc(C(N)=O)c3)n3ncnc23)ccc1C(=O)NCc1ccc(C)nc1 [Compound 121] | – | > 1000 | > 1000 | –
CC(C)N1CCN(c2ccc(Nc3ncc(-c4cc5c(cn4)C(=O)NC5)n4ncnc34)cc2)CC1 [Compound 173] | > 1000 | > 1000 | – | –
CNC(=O)C1CCN(C(=O)c2ccc(Nc3ncc(-c4cn[nH]c4)n4ncnc34)cc2)CC1 [Compound 136] | – | 501 to 1000 | > 1000 | –
O=C(c1ccc(Nc2ncc(-c3cn[nH]c3)n3ncnc23)cc1)N1CCN(Cc2ccc(F)cc2)CC1 [Compound 144] | – | 501 to 1000 | – | –
CC(C)N1CCN(c2ccc(Nc3ncc(-c4ccc5c(c4)C(=O)NC5)n4ncnc34)cc2)CC1 [Compound 109] | > 1000 | > 1000 | – | –
CC(C)CNC(=O)c1ccc(Nc2ncc(-c3cn[nH]c3)n3ncnc23)cc1 [Compound 164] | – | > 1000 | > 1000 | –
O=C(c1ccc(Nc2ncc(-c3cn[nH]c3)n3ncnc23)cc1)N1CCN(c2ccccn2)CC1 [Compound 148] | – | 501 to 1000 | > 1000 | –
O=C(c1ccc(Nc2ncc(-c3cn[nH]c3)n3ncnc23)cc1)N1CCN(c2ccccc2)CC1 [Compound 145] | – | 501 to 1000 | > 1000 | –
CC1(C)OCC(CNC(=O)c2ccc(Nc3ncc(-c4cn[nH]c4)n4ncnc34)cc2)O1 (centres unmarked) [Compound 161] | – | 501 to 1000 | > 1000 | –
O=C(NCC1CCCCC1)c1cccc(Nc2ncc(-c3cn[nH]c3)n3ncnc23)c1 [Compound 130] | – | > 1000 | > 1000 | –
O=C(NCCc1ccncc1)c1ccc(Nc2ncc(-c3cn[nH]c3)n3ncnc23)cc1 [Compound 137] | – | 501 to 1000 | > 1000 | –
O=C1CN(c2ccc(Nc3ncc(-c4cn[nH]c4)n4ncnc34)cc2)CCN1 [Compound 177] | > 1000 | > 1000 | – | –
CCN1CCCC1CNC(=O)c1ccc(Nc2ncc(-c3cn[nH]c3)n3ncnc23)cc1 (centres unmarked) [Compound 139] | – | 501 to 1000 | > 1000 | –
CC(C)N1CCN(c2ccc(Nc3ncc(-c4csc(C(N)=O)c4)n4ncnc34)cn2)CC1 [Compound 55, 4-{8-[6-(4-Isopropylpiperazin-1-yl)pyridin-3-ylamino]-[1,2,4]triazolo[1,5-a]pyrazin-5-yl}thiophene-2-carboxylic acid amide] | 101 to 500 | 101 to 500 | – | –
COc1cc(Nc2ncc(-c3cn[nH]c3)n3ncnc23)ccc1C(=O)NCc1ccccc1 [Compound 122, N-Benzyl-2-methoxy-4-[5-(1H-pyrazol-4-yl)-[1,2,4]triazolo[1,5-a]pyrazin-8-ylamino]-benzamide] | – | > 1000 | > 1000 | –
CC(C)N1CCN(c2ccc(Nc3ncc(-c4ccc5c(c4)C(C)(C)NC5=O)n4ncnc34)cc2)CC1 [Compound 114, 5-{8-[4-(4-Isopropylpiperazin-1-yl)-phenylamino]-[1,2,4]triazolo[1,5-a]pyrazin-5-yl}-3,3-dimethyl-2,3-dihydroisoindol-1-one] | > 1000 | > 1000 | – | –
CCOCCN1CCN(C(=O)c2ccc(Nc3ncc(-c4cn[nH]c4)n4ncnc34)cc2)CC1 [Compound 141] | – | 501 to 1000 | > 1000 | –
O=C(NCc1cc(-c2ccccc2)on1)c1ccc(Nc2ncc(-c3cn[nH]c3)n3ncnc23)cc1 [Compound 192] | – | > 1000 | 101 to 500 | –
O=C(NCc1cccnc1)c1ccc(Nc2ncc(-c3cn[nH]c3)n3ncnc23)cc1 [Compound 118, 4-(5-(1H-Pyrazol-4-yl)-[1,2,4]triazolo[1,5-a]pyrazin-8-ylamino)-N-(pyridin-3-ylmethyl)benzamide] | – | > 1000 | > 1000 | –
O=C(NCC1CC1)c1ccc(Nc2ncc(-c3cn[nH]c3)n3ncnc23)cc1 [Compound 142] | – | > 1000 | > 1000 | –
NC(=O)c1cc(-c2cnc(Nc3ccc(NC(=O)c4ccccc4)nc3)c3ncnn23)cs1 [Compound 133] | – | > 1000 | > 1000 | –
CC(C)N1CCN(c2ccc(Nc3ncc(-c4cn[nH]c4)n4ncnc34)cn2)CC1 [Compound 43, [6-(4-Isopropylpiperazin-1-yl)pyridin-3-yl]-[5-(1H-pyrazol-4-yl)-[1,2,4]triazolo[1,5-a]pyrazin-8-yl]amine] | > 1000 | > 1000 | – | –
O=C(N[C@@H]1CCN(Cc2ccccc2)C1)c1ccc(Nc2ncc(-c3ccc4c(c3)CNC4=O)n3ncnc23)cc1 [Compound 195] | – | 101 to 500 | > 1000 | –
O=C1NCc2oc(-c3cnc(Nc4ccc(N5CCOCC5)cc4)c4ncnn34)cc21 [Compound 111] | > 1000 | 101 to 500 | – | –
CC(C)N(CCNC(=O)c1ccc(Nc2ncc(-c3cn[nH]c3)n3ncnc23)cc1)C(C)C [Compound 162] | – | 501 to 1000 | > 1000 | –
CC(C)N1CCN(c2ccc(Nc3ncc(-c4ccnc(CO)c4)n4ncnc34)cc2)CC1 [Compound 83, (4-{8-[4-(4-Isopropylpiperazin-1-yl)-phenylamino]-[1,2,4]triazolo[1,5-a]pyrazin-5-yl}pyridin-2-yl)methanol] | > 1000 | > 1000 | – | –

SMILES | EC50 ([1]; Table 3) [nM] | IC50 [2] [nM] | EC50 ([1]; Table 4) [nM] | IC50 ([1]; complex trigger activated SFs, 48 hrs after treatment, FIG. 3, read-out: IC50 of reduction of MMP1 expression by SFs) [nM]
CCN1CCN(C(=O)c2ccc(Nc3ncc(-c4cn[nH]c4)n4ncnc34)cc2)CC1 [Compound 138] | – | 501 to 1000 | > 1000 | –
OCc1cc(-c2cnc(Nc3ccc(N4CCOCC4)cc3)c3ncnn23)ccn1 [Compound 82] | > 1000 | > 1000 | – | –
CCC(C)N1CCN(C(=O)c2ccc(Nc3ncc(-c4cn[nH]c4)n4ncnc34)cc2)CC1 (centres unmarked) [Compound 152] | – | 501 to 1000 | > 1000 | –
O=C(NCc1cc(-c2ccccc2)on1)c1ccc(Nc2ncc(-c3ccc4c(c3)CNC4=O)n3ncnc23)cc1 [Compound 197] | – | > 1000 | > 1000 | –
COCCN1CCN(C(=O)c2ccc(Nc3ncc(-c4cn[nH]c4)n4ncnc34)cc2)CC1 [Compound 150] | – | 501 to 1000 | > 1000 | –
O=C(NCc1ccccc1)c1cccc(Nc2ncc(-c3cn[nH]c3)n3ncnc23)c1 [Compound 123] | – | > 1000 | > 1000 | –
O=C(NCCO)c1ccc(Nc2ncc(-c3cn[nH]c3)n3ncnc23)cc1 [Compound 166] | – | 501 to 1000 | > 1000 | –
O=C(c1cccc(Nc2ncc(-c3cn[nH]c3)n3ncnc23)c1)N1CCCC1 [Compound 126] | – | > 1000 | > 1000 | –
O=C(Nc1cn(Cc2ccccc2)cn1)c1ccc(Nc2ncc(-c3cn[nH]c3)n3ncnc23)cc1 [Compound 198] | – | > 1000 | > 1000 | –
CN1CCN(c2ccc(NC(=O)c3ccc(Nc4ncc(-c5cn[nH]c5)n5ncnc45)cc3)cc2)CC1 [Compound 153] | – | 501 to 1000 | > 1000 | –
CC(C)(C)NC(=O)N1CCC(Nc2ncc(-c3ccc4c(c3)CNC4=O)n3ncnc23)CC1 [Compound 178] | > 1000 | 501 to 1000 | – | –
CC(C)NC(=O)CN1CCN(C(=O)c2ccc(Nc3ncc(-c4cn[nH]c4)n4ncnc34)cc2)CC1 [Compound 155] | – | 501 to 1000 | > 1000 | –
O=C1CNCCN1c1ccc(Nc2ncc(-c3cn[nH]c3)n3ncnc23)cc1 [Compound 100, 1-(4-(5-(1H-Pyrazol-4-yl)-[1,2,4]triazolo[1,5-a]pyrazin-8-ylamino)phenyl)piperazin-2-one] | > 1000 | > 1000 | – | –
CC(C)N1CCN(c2ccc(Nc3ncc(-c4ccc5cn[nH]c5c4)n4ncnc34)cc2)CC1 [Compound 106] | – | > 1000 | – | –
NC(=O)c1cccc(Nc2ncc(-c3cn[nH]c3)n3ncnc23)c1 [Compound 128] | – | > 1000 | > 1000 | –
COC[C@@H]1CCCN1C(=O)c1ccc(Nc2ncc(-c3cn[nH]c3)n3ncnc23)cc1 [Compound 146] | – | > 1000 | > 1000 | –
COc1cc(Nc2ncc(-c3csc(C(N)=O)c3)n3ncnc23)ccc1C(=O)NCc1ccccc1 [Compound 132] | – | > 1000 | > 1000 | –
CN(C)Cc1cc(Nc2ncc(-c3ccc4c(c3)CNC4=O)n3ncnc23)ccc1N1CCOCC1 [Compound 175] | > 1000 | – | – | –
O=C(N[C@H]1CCN(Cc2ccccc2)C1)c1ccc(Nc2ncc(-c3cn[nH]c3)n3ncnc23)cc1 [Compound 191] | – | > 1000 | – | –
C[C@@H]1C[C@H]2[C@@H]3CCC4=CC(=O)C=C[C@]4(C)[C@@]3(F)[C@@H](O)C[C@]2(C)[C@@]1(O)C(=O)CO [dexamethasone, reference compound] | – | – | – | ~1
CC(C)N1CCCN(c2ccc(Nc3ncc(-c4cn[nH]c4)n4ncnc34)cc2)CC1 [Compound 187] | – | > 1000 | – | –
CC(C)N1CCC(Nc2ncc(-c3ccc4c(c3)CNC4=O)n3ncnc23)CC1 [Compound 186] | – | > 1000 | – | –
CC(C)N1CCCN(c2ccc(Nc3ncc(-c4ccc5c(c4)CNC5=O)n4ncnc34)cc2)CC1 [Compound 188] | – | 1 to 100 | – | –
COCCN1CCC(c2ccc(Nc3ncc(-c4ccc5c(c4)CNC5=O)n4ncnc34)cc2)CC1 [Compound 189] | – | 1 to 100 | – | –
O=C(Nc1ccc(Nc2ncc(-c3cn[nH]c3)n3ncnc23)cn1)c1ccccc1 [Compound 135] | – | > 1000 | – | –
CCN1CCC[C@H]1CNC(=O)c1ccc(Nc2ncc(-c3cn[nH]c3)n3ncnc23)cc1 [Compound 163] | – | – | > 1000 | –
